Assay results from patent US20070264319A1, “Transdermal Antiemesis Delivery System, Method and Composition Therefor” (priority 2004, published 2007).
Where a name gives a salt, the structure may show the parent alone.

Tests used:
[1] = typical oral dose of about 1 to about 2 mg twice daily; cited from earlier work
[2] = Solubility of granisetron base in penetration enhancers; type: physicochemical; details: thermodynamic from solid
Method: The incorporation of granisetron base in various penetration enhancers and solvents was determined by incrementally adding small amounts of the drug to about 100 ml of liquid penetration enhancer, and agitating the liquid mixture until the drug was no longer incorporated (i.e., saturation) to provide an apparently saturated liquid mixture at an ambient room temperature in the range of about 20 to about 25° C. Each of the saturated liquid mixtures was agitated by inverting for about 24 hours at ambient room temperature, the solution was centrifuged and its supernatant was diluted in HPLC mobile phase and assayed by the HPLC method as described in Example 2.

[3] = water and normal saline at 20° C.; cited from earlier work

Row | SMILES | elimination half-life [1] | solubility at 24 h ([2]; oil or lipid, in Isopropyl myristate, about 20 to about 25° C.) | solubility at 24 h ([2]; organic solvent or mixture, in BRIJ ® 30, about 20 to about 25° C.) | solubility at 24 h ([2]; organic solvent or mixture, in DDAIP (free base), about 20 to about 25° C.) | solubility at 24 h ([2]; organic solvent or mixture, in DGME (transcutol), about 20 to about 25° C.) | solubility at 24 h ([2]; organic solvent or mixture, in Limonene, about 20 to about 25° C.) | solubility at 24 h ([2]; organic solvent or mixture, in NMP, about 20 to about 25° C.) | solubility at 24 h ([2]; organic solvent or mixture, in PEG-400, ambient room temperature about 20 to about 25° C.) | solubility at 24 h ([2]; organic solvent or mixture, in Propylene glycol, about 20 to about 25° C.) | solubility at 24 h ([2]; organic solvent or mixture, in SPAN ® 20, about 20 to about 25° C.) | solubility [3]
1 | CN1C2CCCC1CC(NC(=O)c1nn(C)c3ccccc13)C2 (centres unmarked) [Granisetron] | about 7 hours | 5.46 µg/mL | 41.2 µg/mL | 7.17 µg/mL | 86.6 µg/mL | 8.59 µg/mL | 196 µg/mL | 45.7 µg/mL | 31.7 µg/mL | 32.9 µg/mL | –
2 | CN1C2CCCC1CC(NC(=O)c1nn(C)c3ccccc13)C2 (centres unmarked) [Granisetron hydrochloride] | – | – | – | – | – | – | – | – | – | – | soluble in water and normal saline
